Experimental data as given in US20230416248A1, “COMPOUNDS AND USES THEREOF” (Foghorn Therapeutics Inc., priority 2020, published 2023).

Legend:
[1] = biological target: T1, BRG-1 (Homo sapiens, UniProt P51532); experiment: ATPase catalytic activity of BRG-1, ADP-Glo in vitro biochemical assay; conditions: ATPase catalytic activity, ADP-Glo; 30 nM BRG-1, 400 μM ATP; read-out: BRG1 IC50
T1 construct: made in house; host or cells: High Five insect cells
In short: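 BRG-1 ATPase activity was measured by ADP-Glo. Unconsumed ATP was depleted for 40 min at room temperature, then ADP was converted to ATP for 60 min and read as luminescence.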

[2] = biological target: T2, BRM (Homo sapiens, UniProt P51531); experiment: ATPase catalytic activity of BRM, ADP-Glo in vitro biochemical assay; conditions: for IC50: ATPase catalytic activity, ADP-Glo, 30 nM BRM, 400 μM ATP; for Ratio*: ratio of BRG1 IC50 to BRM IC50
T2 construct: made in house; host or cells: High Five insect cells
In short: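 Recombinant BRM (30 nM) hydrolysed 400 μM ATP with 20 nM salmon sperm DNA in pH 8 Tris buffer containing 20 mM MgCl2, 50 mM NaCl, 0.1% Tween-20 and 1 mM DTT, 1 h at room temperature. ADP formed was quantified by ADP-Glo luminescence.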

T1 sequence (P51532 whole entry): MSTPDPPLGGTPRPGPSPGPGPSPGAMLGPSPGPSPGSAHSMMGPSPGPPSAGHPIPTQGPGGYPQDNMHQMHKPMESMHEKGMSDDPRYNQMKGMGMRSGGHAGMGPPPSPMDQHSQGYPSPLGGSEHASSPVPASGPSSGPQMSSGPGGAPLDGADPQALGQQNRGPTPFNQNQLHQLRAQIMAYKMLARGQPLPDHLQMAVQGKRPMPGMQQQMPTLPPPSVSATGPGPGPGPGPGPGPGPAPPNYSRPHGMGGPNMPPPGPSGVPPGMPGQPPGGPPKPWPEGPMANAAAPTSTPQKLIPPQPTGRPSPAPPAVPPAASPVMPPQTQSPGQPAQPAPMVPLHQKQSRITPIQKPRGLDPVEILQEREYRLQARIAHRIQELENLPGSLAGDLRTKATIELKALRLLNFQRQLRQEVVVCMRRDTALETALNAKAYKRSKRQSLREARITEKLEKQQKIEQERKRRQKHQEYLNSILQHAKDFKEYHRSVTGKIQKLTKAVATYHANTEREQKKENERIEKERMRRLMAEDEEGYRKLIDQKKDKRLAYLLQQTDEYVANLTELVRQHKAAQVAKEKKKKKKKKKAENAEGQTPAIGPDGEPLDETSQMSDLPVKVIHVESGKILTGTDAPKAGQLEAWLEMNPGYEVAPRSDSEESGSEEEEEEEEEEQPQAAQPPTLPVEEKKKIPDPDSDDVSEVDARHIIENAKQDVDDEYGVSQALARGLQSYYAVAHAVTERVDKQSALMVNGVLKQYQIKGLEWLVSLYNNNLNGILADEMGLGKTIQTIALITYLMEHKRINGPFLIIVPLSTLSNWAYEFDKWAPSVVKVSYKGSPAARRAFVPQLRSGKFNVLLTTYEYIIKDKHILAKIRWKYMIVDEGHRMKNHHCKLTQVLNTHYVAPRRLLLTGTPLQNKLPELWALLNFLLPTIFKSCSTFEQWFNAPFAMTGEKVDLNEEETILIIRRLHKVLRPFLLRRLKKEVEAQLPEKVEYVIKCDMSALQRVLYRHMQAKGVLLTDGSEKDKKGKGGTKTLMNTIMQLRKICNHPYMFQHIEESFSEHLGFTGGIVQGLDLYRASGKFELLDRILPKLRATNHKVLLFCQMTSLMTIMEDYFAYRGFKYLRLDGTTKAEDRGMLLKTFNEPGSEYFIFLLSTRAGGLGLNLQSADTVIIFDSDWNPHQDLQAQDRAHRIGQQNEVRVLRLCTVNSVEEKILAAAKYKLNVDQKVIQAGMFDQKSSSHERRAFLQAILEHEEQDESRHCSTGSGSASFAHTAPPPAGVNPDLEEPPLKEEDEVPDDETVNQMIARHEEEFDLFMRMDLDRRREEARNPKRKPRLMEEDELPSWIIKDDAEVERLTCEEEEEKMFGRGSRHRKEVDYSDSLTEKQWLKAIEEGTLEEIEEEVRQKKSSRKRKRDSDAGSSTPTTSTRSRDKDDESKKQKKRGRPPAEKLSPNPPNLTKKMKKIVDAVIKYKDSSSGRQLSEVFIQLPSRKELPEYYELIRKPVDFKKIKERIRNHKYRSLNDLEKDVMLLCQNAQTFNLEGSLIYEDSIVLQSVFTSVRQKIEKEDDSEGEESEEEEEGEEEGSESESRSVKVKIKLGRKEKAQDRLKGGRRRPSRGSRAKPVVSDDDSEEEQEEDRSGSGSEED
T2 sequence (P51531 whole entry): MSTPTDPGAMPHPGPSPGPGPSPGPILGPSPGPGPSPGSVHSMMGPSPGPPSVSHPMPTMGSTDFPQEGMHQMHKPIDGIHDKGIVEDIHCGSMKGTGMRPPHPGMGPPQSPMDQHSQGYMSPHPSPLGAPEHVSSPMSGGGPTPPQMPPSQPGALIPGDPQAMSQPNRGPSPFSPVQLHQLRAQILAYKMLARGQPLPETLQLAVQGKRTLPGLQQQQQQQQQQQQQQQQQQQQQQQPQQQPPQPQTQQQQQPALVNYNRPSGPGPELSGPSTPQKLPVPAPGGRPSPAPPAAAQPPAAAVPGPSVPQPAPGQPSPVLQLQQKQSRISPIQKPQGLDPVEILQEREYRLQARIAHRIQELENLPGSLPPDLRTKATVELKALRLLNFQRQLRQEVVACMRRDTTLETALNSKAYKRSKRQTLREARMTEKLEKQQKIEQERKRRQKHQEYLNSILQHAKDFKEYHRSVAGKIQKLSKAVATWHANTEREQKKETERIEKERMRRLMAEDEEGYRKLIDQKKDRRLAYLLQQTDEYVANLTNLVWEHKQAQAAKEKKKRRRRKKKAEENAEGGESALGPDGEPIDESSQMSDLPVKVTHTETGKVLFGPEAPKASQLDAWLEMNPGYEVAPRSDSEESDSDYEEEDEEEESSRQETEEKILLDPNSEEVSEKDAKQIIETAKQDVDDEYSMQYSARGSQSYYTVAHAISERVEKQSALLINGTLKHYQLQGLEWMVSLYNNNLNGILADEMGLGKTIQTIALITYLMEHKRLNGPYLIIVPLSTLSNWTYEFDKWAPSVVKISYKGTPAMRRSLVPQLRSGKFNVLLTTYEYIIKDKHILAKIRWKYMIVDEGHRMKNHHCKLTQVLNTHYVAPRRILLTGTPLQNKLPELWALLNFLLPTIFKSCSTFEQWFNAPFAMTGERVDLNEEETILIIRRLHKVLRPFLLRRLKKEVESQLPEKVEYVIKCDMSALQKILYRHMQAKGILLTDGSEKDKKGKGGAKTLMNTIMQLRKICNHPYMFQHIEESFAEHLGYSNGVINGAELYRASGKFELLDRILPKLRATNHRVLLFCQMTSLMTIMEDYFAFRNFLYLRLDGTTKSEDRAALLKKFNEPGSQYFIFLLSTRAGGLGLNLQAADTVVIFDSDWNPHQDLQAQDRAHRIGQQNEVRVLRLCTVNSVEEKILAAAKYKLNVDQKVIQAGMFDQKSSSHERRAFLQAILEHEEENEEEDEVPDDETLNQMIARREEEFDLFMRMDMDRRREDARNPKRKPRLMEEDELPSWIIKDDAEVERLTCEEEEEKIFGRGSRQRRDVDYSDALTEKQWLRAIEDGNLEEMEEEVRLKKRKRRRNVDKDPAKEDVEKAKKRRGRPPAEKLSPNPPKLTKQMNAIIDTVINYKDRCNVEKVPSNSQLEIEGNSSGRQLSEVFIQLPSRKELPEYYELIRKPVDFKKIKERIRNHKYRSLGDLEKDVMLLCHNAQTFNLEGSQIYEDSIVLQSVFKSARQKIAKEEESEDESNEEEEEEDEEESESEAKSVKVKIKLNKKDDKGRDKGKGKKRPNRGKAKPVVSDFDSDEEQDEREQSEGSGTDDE

Row | SMILES | IC50 [1] [µM] | IC50 [2] [µM] | Ratio* [2]
1 | O=C(NCc1cc2nc(N3CCCCc4cccnc43)ccc2cn1)c1ccc2c(c1)S(=O)(=O)CCOC2 [Compound 469] | 4.26 | 2.34 | 1.82
2 | C[C@H](C1COC1)N(C)c1cccc(-c2ccc3cnc(CNC(=O)c4ccc5c(c4)S(=O)(=O)CCOC5)cc3n2)n1 [Compound 470] | 0.954 | 0.0748 | 12.76
3 | C[C@@H](C1COC1)N(C)c1cccc(-c2ccc3cnc(CNC(=O)c4ccc5c(c4)S(=O)(=O)CCOC5)cc3n2)n1 [Compound 471] | 0.884 | 0.167 | 5.29
4 | O=C(NCc1cc2nc(-c3cccc(C45COCC4C5)n3)ccc2cn1)c1ccc2c(c1)S(=O)(=O)CCOC2 (stereo not drawn) [Compound 472] | 0.373 | 0.025 | 14.93
5 | O=C(NCc1cc2nc(N3CCCc4cc(C(F)F)cnc43)ccc2cn1)c1ccc2c(c1)S(=O)(=O)CCOC2 [Compound 473] | 0.147 | 0.0109 | 13.46
6 | C[C@@H]1CN(c2cccc(-c3ccc4cnc(CNC(=O)c5ccc(CC(C)(F)F)c(S(C)(=O)=O)c5)cc4n3)n2)C[C@H](C)O1 [Compound 474] | 4.69 | 0.23 | 20.44
7 | C/C(F)=C/c1ccc(C(=O)NCc2cc3nc(-c4cccc(N5C[C@@H](C)O[C@@H](C)C5)n4)ccc3cn2)cc1S(C)(=O)=O [Compound 475] | 1.68 | 0.215 | 7.79
8 | COC[C@@H]1CCc2ccc(-c3ccc4cnc(CNC(=O)c5ccc6c(c5)S(=O)(=O)CCOC6)cc4n3)nc2N1C [Compound 476] | 0.0366 | 0.0037 | 9.82
9 | COC[C@H]1CCc2ccc(-c3ccc4cnc(CNC(=O)c5ccc6c(c5)S(=O)(=O)CCOC6)cc4n3)nc2N1C [Compound 477] | 0.293 | 0.0452 | 6.50
10 | O=C(NCc1cc2nc(N3CCCc4c(Cl)ccnc43)ccc2cn1)c1ccc2c(c1)S(=O)(=O)CCOC2 [Compound 478] | 0.25 | 0.0255 | 9.80
11 | CC(F)(F)CN1CCOc2c(-c3ccc4cnc(CNC(=O)c5ccc6c(c5)S(=O)(=O)CCOC6)cc4n3)cccc21 [Compound 479] | 0.189 | 0.0483 | 3.92
12 | CO[C@@H]1C[C@H]1N(C)c1cccc(-c2ccc3cnc(CNC(=O)c4ccc5c(c4)S(=O)(=O)CCOC5)cc3n2)n1 [Compound 480] | 0.0602 | 0.0051 | 11.83
13 | O=C(NCc1cc2nc(N3CCOc4cc(C5CC5)ccc43)ccc2cn1)c1ccc2c(c1)S(=O)(=O)CCOC2 [Compound 481] | 0.113 | 0.0132 | 8.58
14 | CCO[C@H]1CCS(=O)(=O)c2cc(C(=O)NCc3cc4nc(-c5cccc(N6C[C@@H](C)O[C@@H](C)C6)n5)ccc4cn3)ccc2C1 [Compound 482] | 0.234 | 0.0231 | 10.09
15 | C[C@@H]1CN(c2cccc(-c3ccc4cnc(CNC(=O)c5ccc6c(c5)S(=O)(=O)CC[C@@H]6C)cc4n3)n2)C[C@H](C)O1 [Compound 483] | 1.23 | 0.0438 | 27.99
16 | C[C@@H]1CN(c2cccc(-c3ccc4cnc(CNC(=O)c5cc(Cl)c6c(c5)S(=O)(=O)[C@@H](C)CCO6)cc4n3)n2)C[C@H](C)O1 [Compound 484] | 0.289 | 0.0137 | 21.16
17 | CCOC1CCS(=O)(=O)c2cc(C(=O)NCc3cc4nc(-c5cccc(N6CC(C)OC(C)C6)n5)ccc4cn3)ccc2C1 (stereo not drawn) [Compound 485] | 0.189 | 0.013 | 14.45

Row | SMILES | IC50 [1] [µM] | IC50 [2] [µM] | Ratio* [2]
18 | COc1cccc(-c2ccc3cnc(CNC(=O)c4ccc5c(c4)S(=O)(=O)CCOC5)cc3n2)n1 [Compound 487] | 0.344 | 0.0219 | 15.66
19 | CN1CCCc2ccc(-c3ccc4cnc(CNC(=O)c5ccc6c(c5)S(=O)(=O)CCOC6)cc4n3)nc21 [Compound 488] | 0.0908 | 0.0127 | 7.17
20 | CCOc1nc(-c2ccc3cnc(CNC(=O)c4ccc5c(c4)S(=O)(=O)CCOC5)cc3n2)ccc1C(F)F [Compound 489] | 0.181 | 0.0159 | 11.37
21 | C[C@@H]1CN(c2cccc(-c3ccc4cnc(CNC(=O)c5ccc6c(c5)S(=O)(=O)CC[C@H]6C)cc4n3)n2)C[C@H](C)O1 [Compound 490] | 0.787 | 0.0561 | 14.02
22 | Cc1cnc2c(c1)OCCN2c1ccc2cnc(CNC(=O)c3ccc4c(c3)S(=O)(=O)CCOC4)cc2n1 [Compound 491] | 0.0628 | 0.0058 | 10.83
23 | COc1cccc2c1CCCN2c1ccc2cnc(CNC(=O)c3ccc4c(c3)S(=O)(=O)CCOC4)cc2n1 [Compound 492] | 0.0191 | 0.0044 | 4.38
24 | CCOc1nc(-c2ccc3cnc(CNC(=O)c4ccc5c(c4)S(=O)(=O)CCOC5)cc3n2)ccc1Cl [Compound 493] | 0.921 | 0.179 | 5.15
25 | C[C@@H]1CCS(=O)(=O)c2cc(C(=O)NCc3cc4nc(-c5cccc(N6C[C@@H](C)O[C@@H](C)C6)n5)ccc4cn3)cc(F)c2O1 [Compound 494] | 0.0985 | 0.0224 | 4.39
26 | C[C@@H]1CN(c2cccc(-c3ccc4cnc(CNC(=O)c5cc(F)c6c(c5)S(=O)(=O)CC[C@H](C)O6)cc4n3)n2)C[C@H](C)O1 [Compound 495] | 0.981 | 0.0631 | 15.54
27 | COC1CCN(c2ccc3cnc(CNC(=O)c4ccc5c(c4)S(=O)(=O)CCOC5)cc3n2)c2ncccc21 (stereo not drawn) [Compound 496] | 2.39 | 0.157 | 15.21
28 | CCOc1nc(-c2ccc3cnc(CNC(=O)c4ccc5c(c4)S(=O)(=O)[C@@H](C)COC5)cc3n2)ccc1F [Compound 497] | 0.411 | 0.0259 | 15.92
29 | CC1CN(c2cccc(-c3ccc4cnc(CNC(=O)c5ccc6c(c5)S(=O)(=O)C(C)CN6C)cc4n3)n2)CC(C)O1 (stereo not drawn) [Compound 498] | 0.439 | 0.0266 | 16.52
30 | O=C(NCc1cc2nc(-c3ccc4c(n3)OCCC4)ccc2cn1)c1ccc2c(c1)S(=O)(=O)CCOC2 [Compound 499] | 1.19 | 0.29 | 4.12
31 | C[C@@H]1CN(c2cccc(-c3ccc4cnc(CNC(=O)c5ccc6c(c5)S(=O)(=O)[C@@H](C)C6)cc4n3)n2)C[C@H](C)O1 [Compound 500] | 3.52 | 0.208 | 16.91
32 | CCOc1nc(-c2ccc3cnc(CNC(=O)c4ccc5c(c4)S(=O)(=O)CCOC5)cc3n2)ccc1C [Compound 501] | 0.135 | 0.0099 | 13.59
33 | C[C@@H]1CN(c2cccc(-c3ccc4cnc(CNC(=O)c5ccc6c(c5)S(=O)(=O)[C@H](C)C6)cc4n3)n2)C[C@H](C)O1 [Compound 502] | 0.12 | 0.008 | 14.99
34 | O=C(NCc1cc2nc(N3CCOc4cc(C5CC5)cnc43)ccc2cn1)c1ccc2c(c1)S(=O)(=O)CCOC2 [Compound 503] | 0.0737 | 0.0058 | 12.62
